Experimental data as given in patent publication US12414915B2, “Liquid naloxone spray” (HIKMA PHARMACEUTICALS USA INC., priority 2023, dated 2025).
Like-named read-outs stand apart in the source and are kept apart here.

Test: Phase I five-way crossover: intranasal and sublingual naloxone spray 8 mg and 16 mg versus 0.4 mg intramuscular, plasma concentrations
Assay type: in vivo, human subjects
Conditions: for concentration at 0.03 h / concentration at 0.07 h / concentration at 0.1 h / concentration at 0.13 h / concentration at 0.17 h / concentration at 0.5 h / concentration at 1 h / concentration at […] / Cmax / AUC: human, plasma; for concentration at 0.03 h / concentration at 0.07 h / concentration at 0.1 h / concentration at 0.13 h / concentration at 0.17 h / concentration at 0.5 h / concentration at 1 h / concentration at […]: mean ± SD; for concentration at […]: read-out: Conc. @ 0.25 h; for AUC: time-zero to 1 hour post dose
Procedure: 145 subjects were randomly assigned to one of five groups including 8 milligrams sublingual dose, 16 milligrams sublingual dose, 8 milligrams intranasal dose, 16 milligrams intranasal dose and 0.4 milligram naloxone dose. Plasma concentrations were taken at pre-dose, 0.03, 0.07, 0.1, 0.13, 0.17, 0.25, 0.5, 1, 2 4, 8 and 12 hours' post-dose.

C=CCN1CC[C@]23c4c5ccc(O)c4O[C@H]2C(=O)CC[C@@]3(O)[C@H]1C5 [naloxone, Naloxone]
mean plasma concentration, 16 mg intranasal compared with 16 mg sublingual (2 and 4 hours post-dose): significantly lower
plasma concentration, intranasal compared with sublingual administration (all time points up to 1 hour after administration): significantly greater plasma concentration
concentration at 0.03 h (intramuscular, 0.4 mg IM): 0.15 ± 0.29 ng/mL
concentration at 0.07 h (intramuscular, 0.4 mg IM): 0.36 ± 0.38 ng/mL
concentration at 0.1 h (intramuscular, 0.4 mg IM): 0.51 ± 0.41 ng/mL
concentration at 0.13 h (intramuscular, 0.4 mg IM): 0.58 ± 0.39 ng/mL
concentration at 0.17 h (intramuscular, 0.4 mg IM): 0.63 ± 0.36 ng/mL
concentration at 0.5 h (intramuscular, 0.4 mg IM): 0.62 ± 0.22 ng/mL
concentration at 1 h (intramuscular, 0.4 mg IM): 0.51 ± 0.16 ng/mL
concentration at […] (intramuscular, 0.4 mg IM): 0.69 ± 0.4 ng/mL
concentration at 0.03 h (other: intranasal, 8 mg IN): 6.19 ± 14.5 ng/mL
concentration at 0.07 h (other: intranasal, 8 mg IN): 13.9 ± 19.1 ng/mL
concentration at 0.1 h (other: intranasal, 8 mg IN): 18.8 ± 15.6 ng/mL
concentration at 0.13 h (other: intranasal, 8 mg IN): 20.5 ± 13.1 ng/mL
concentration at 0.17 h (other: intranasal, 8 mg IN): 20 ± 10.7 ng/mL
concentration at 0.5 h (other: intranasal, 8 mg IN): 9.88 ± 4.42 ng/mL
concentration at 1 h (other: intranasal, 8 mg IN): 6.29 ± 2.7 ng/mL
concentration at […] (other: intranasal, 8 mg IN): 16.5 ± 6.71 ng/mL
concentration at 0.03 h (other: intranasal, 16 mg IN): 9.29 ± 14.3 ng/mL
concentration at 0.07 h (other: intranasal, 16 mg IN): 29.7 ± 28 ng/mL
concentration at 0.1 h (other: intranasal, 16 mg IN): 46.3 ± 36.6 ng/mL
concentration at 0.13 h (other: intranasal, 16 mg IN): 49.3 ± 34 ng/mL
concentration at 0.17 h (other: intranasal, 16 mg IN): 45.8 ± 24.6 ng/mL
concentration at 0.5 h (other: intranasal, 16 mg IN): 22.4 ± 8.19 ng/mL
concentration at 1 h (other: intranasal, 16 mg IN): 14.1 ± 5.61 ng/mL
concentration at […] (other: intranasal, 16 mg IN): 35 ± 13.2 ng/mL
concentration at 0.03 h (other: sublingual, 8 mg SL): 0.18 ± 0.29 ng/mL
concentration at 0.07 h (other: sublingual, 8 mg SL): 0.62 ± 0.96 ng/mL
concentration at 0.1 h (other: sublingual, 8 mg SL): 0.88 ± 0.94 ng/mL
concentration at 0.13 h (other: sublingual, 8 mg SL): 1.17 ± 1.13 ng/mL
concentration at 0.17 h (other: sublingual, 8 mg SL): 1.54 ± 1.1 ng/mL
concentration at 0.5 h (other: sublingual, 8 mg SL): 2.03 ± 1.28 ng/mL
concentration at 1 h (other: sublingual, 8 mg SL): 1.61 ± 0.85 ng/mL
concentration at […] (other: sublingual, 8 mg SL): 1.98 ± 1.29 ng/mL
concentration at 0.03 h (other: sublingual, 16 mg SL): 0.52 ± 0.8 ng/mL
concentration at 0.07 h (other: sublingual, 16 mg SL): 1.69 ± 1.85 ng/mL
concentration at 0.1 h (other: sublingual, 16 mg SL): 2.31 ± 2.08 ng/mL
concentration at 0.13 h (other: sublingual, 16 mg SL): 3.16 ± 3.39 ng/mL
concentration at 0.17 h (other: sublingual, 16 mg SL): 3.63 ± 3.83 ng/mL
concentration at 0.5 h (other: sublingual, 16 mg SL): 3.94 ± 2.96 ng/mL
concentration at 1 h (other: sublingual, 16 mg SL): 2.96 ± 1.66 ng/mL
concentration at […] (other: sublingual, 16 mg SL): 4.39 ± 4.24 ng/mL
Cmax (other: intranasal, 8 mg IN): 20.5 ng/mL
AUC (other: intranasal, 8 mg IN): 11.2 ng·h/mL
Cmax (other: intranasal, 16 mg IN): 49.3 ng/mL
AUC (other: intranasal, 16 mg IN): 24.9 ng·h/mL
Cmax (other: sublingual, 8 mg SL): 2.03 ng/mL
AUC (other: sublingual, 8 mg SL): 1.68 ng·h/mL
Cmax (other: sublingual, 16 mg SL): 4.39 ng/mL
AUC (other: sublingual, 16 mg SL): 3.42 ng·h/mL
Cmax (0.4 mg IM): 0.69 ng/mL
AUC (0.4 mg IM): 0.57 ng·h/mL
plasma concentration compared with 0.4 mg intramuscular administration (intranasal or sublingual, 8 mg or 16 mg, all time points up to 1 hour, fasted): significantly greater plasma concentrations
